Where a name gives a salt, the structure may show the parent alone.
System: cholesterol biosynthesis
Assay: Test A: Inhibition of cholesterol biosynthesis from acetate in vitro
Format: biochemical, male Wistar rat (liver microsome and sup fraction)
Settings: [2-^14 C]sodium acetate incorporation into nonsaponifiable lipids, 2 hours at 37° C.; IC50; read-out: Inhibitory activities by Test A: I50 (molar concentration)
Procedure: Enzyme solution was prepared from liver of male Wistar rat billialy cannulated and discharged bile for over 24 hours. Liver was cut out at mid-dark and microsome and supernatant fraction which was precipitable with 40-80% of saturation of ammonium sulfate (sup fraction) were prepared from liver homogenate according to the modified method of Knauss et. al.; Kuroda, M., et. al., Biochim. Biophys. Acta, 489, 119 (1977). For assay of cholesterol biosynthesis, microsome (0.1 mg protein) and sup fraction (1.0 mg protein) were incubated for 2 hours at 37° C. in 200 μl of the reaction mixture containing ATP; 1 mM, Glutathione; 6 mM, Glucose-1-phosphate; 10 mM, NAD; 0.25 mM, NADP; 0.25 mM, CoA; 0.04 mM and 0.2 mM [2-^14 C]sodium acetate (0.2 μCi) with 4 μl of test compound solution dissolved in water or dimethyl sulfoxide. To stop reaction and saponify, 1 ml of 15% EtOH-KOH was added to the reactions and heated at 75° C. for 1 hour. […] Inhibitory activity of compounds was indicated with IC50.

Row | SMILES | IC50 [µM]
1 | CC[C@H](C)C(=O)O[C@H]1C[C@H](O)C=C2C=C[C@H](C)[C@H](CC[C@@H](O)C[C@@H](O)CC(=O)O)[C@H]21 [CS-514, reference compound] | 0.009
2 | Cc1nc2ccccc2c(-c2ccccc2)c1/C=C/C(O)CC(O)CC(=O)O (stereo not drawn) [I-53] | 0.19
3 | CCOC(=O)CC(O)CC(O)/C=C/c1c(C)nc2ccccc2c1-c1ccccc1 (stereo not drawn) [I-13] | 0.125
4 | Cc1nc2ccccc2c(-c2ccc(F)cc2)c1/C=C/C(O)CC(O)CC(=O)O (stereo not drawn) [I-52] | 0.071
5 | CC(C)c1nc2ccccc2c(-c2ccc(F)cc2)c1/C=C/C(O)CC(O)CC(=O)O (stereo not drawn) [I-51, Sodium salt of (E)-3,5-dihydroxy-7-[4'-(4"-fluorophenyl)-2'-(1"-methylethyl)-quinolin-3'-yl]-hept-6-enoic acid] | 0.01
6 | CC[C@H](C)C(=O)O[C@H]1C[C@@H](C)C=C2C=C[C@H](C)[C@H](CC[C@@H]3C[C@@H](O)CC(=O)O3)[C@H]21 [Mevinolin, reference compound] | 0.014

Same assay, conditions: relative to the activity of CS-514 being evaluated to be 1

Row | SMILES | Relative activities by Test A
7 | CCOC(=O)CC(O)CC(O)/C=C/c1c(CC)nc2ccccc2c1-c1ccc(F)cc1 (stereo not drawn) [I-117] | 0.37
8 | CCOC(=O)CC(O)CC(O)/C=C/c1c(C(C)C)nc2cc(OC)c(OC)cc2c1-c1ccc(F)cc1 (stereo not drawn) [I-116] | 2.25
9 | CCOC(=O)CC(O)CC(O)/C=C/c1c(C2CC2)nc2ccccc2c1-c1ccc(F)cc1 (stereo not drawn) [I-120] | 3.21
10 | CC(C)c1nc2c(Cl)cc(Cl)cc2c(-c2ccc(F)cc2)c1/C=C/C(O)CC(O)CC(=O)O (stereo not drawn) [I-522] | 0.76
11 | CCOC(=O)CC(O)CC(O)/C=C/c1c(C(C)C)nc2ccc(Cl)cc2c1-c1ccccc1 (stereo not drawn) [I-16] | 1.75

System: cholesterol biosynthesis in Hep G2 cells
Assay: Test B-1: Inhibition of cholesterol biosynthesis in culture cells (Hep G2)
Format: cell-based
Settings: Homo sapiens, HepG2, [2-^14 C]sodium acetate added at 0 hr after addition of compounds, 4 hrs incubation, read-out: Inhibitory activities by Test B-1: I50 (molar concentration)
Procedure: Hep G2 cells at over 5th passage were seeded to 12 well plates and incubated with Dulbecco's modified Eagle (DME) medium containing 10% of fetal bovine serum (FBS) at 37° C., 5% CO2 until cells were confluent for about 7 days. Cells were exposed to the DME medium containing 5% of lipoprotein deficient serum (LpDS) prepared by ultracentrifugation method for over 24 hours. Medium was changed to 0.5 ml of fresh 5% LpDS containing DME before assay and 10 μl of test compound solution dissolved in water or DMSO were added. 0.2 μCi of [2-^14 C]sodium acetate (20 μl) was added at 0 hr(B-1) or 4 hrs(B-2) after addition of compounds. After 4 hrs further incubation with [2-^14 C]sodium acetate, medium was removed and cells were washed with phosphate buffered saline(PBS) chilled at 4° C. Cells were scraped with rubber policeman and collected to tubes with PBS and digested with 0.2 ml of 0.5 N KOH at 37° C. Aliquot of digestion was used for protein analysis and remaining was saponified with 1 ml of 15% EtOH--KOH at 75° C. for 1 hour. […] Counts were revised by cell protein and indicated with DPM/mg protein. Inhibitory activity of compounds was indicated with IC50.

Row | SMILES | IC50 [µM]
12 | CC(C)c1nc2ccccc2c(-c2ccc(F)cc2)c1/C=C/C(O)CC(O)CC(=O)O (stereo not drawn) [I-51, Sodium salt of (E)-3,5-dihydroxy-7-[4'-(4"-fluorophenyl)-2'-(1"-methylethyl)-quinolin-3'-yl]-hept-6-enoic acid] | 0.1

Same assay, conditions: relative to the activity of CS-514 being evaluated to be 1

Row | SMILES | Relative activities by Test B-1
13 | CCOC(=O)CC(O)CC(O)/C=C/c1c(C(C)C)nc2cc(OC)c(OC)cc2c1-c1ccc(F)cc1 (stereo not drawn) [I-116] | 19.4
14 | O=C(O)CC(O)CC(O)/C=C/c1c(C2CC2)nc2ccccc2c1-c1ccc(F)cc1 (stereo not drawn) [I-520] | 20.0
15 | CCOC(=O)CC(=O)CC(O)/C=C/c1c(C2CC2)nc2ccccc2c1-c1ccc(F)cc1 (stereo not drawn) [II-20] | 20.8

From patent publication US5011930A, “Quinoline type mevalonolactones” (Nissan Chemical Industries Ltd., priority 1987, dated 1991)
